From patent publication US6355799B1, “Substituted benzene compounds, process for their preparation, and herbicidal and defoliant compositions containing them” (ISK Americas Incorporated, priority 1997, dated 2002)

Assays:
Format in all cases: in vivo
[1] = tested on: redroot pigweed (Amaranthus retroflexus, AMARE); assay: Pre-emerge test, greenhouse herbicide activity screening; conditions: rated 14 days after application, 0 = no damage, 100 = complete death
Procedure, shortened: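 Rating: 0–100 visual injury, 14 DAA. Application: acetone, 187 l/ha, 15–1000 g ai/ha, flat-fan track sprayer with nozzle 40–45 cm above soil or canopy. Post-emerge runs used 0.25% v/v surfactant on 2–3 leaf plants.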

[2] = tested on: barnyardgrass (Echinochloa crus-galli, ECHCG); assay: as above; conditions: rated 14 days after application, 0 = no damage, 100 = complete death
Procedure, shortened: (§1)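 Sandy loam pots; pre-emerge: sown 1 d pre-spray, surface-watered after, then bottom-watered. Post-emerge: sown 8–21 d before, 2–3 leaf stage, + 0.25% v/v NIS, bottom-watered. Acetone, 187 l/ha track spray, 15–1000 g ai/ha. 0–100 injury score, day 14.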

[3] = tested on: green foxtail (Setaria viridis, SETVI); assay: as above; conditions: rated 14 days after application, 0 = no damage, 100 = complete death
Procedure, shortened: as §1

[4] = tested on: ivyleaf morningglory (Ipomoea hederacea, IPOHE); assay: as above; conditions: rated 14 days after application, 0 = no damage, 100 = complete death
Procedure, shortened: as §1

[5] = tested on: johnsongrass (Sorghum halepense, SORHA); assay: as above; conditions: rated 14 days after application, 0 = no damage, 100 = complete death
Procedure, shortened: as §1

[6] = tested on: lambsquarters (Chenopodium album, CHEAL); assay: as above; conditions: rated 14 days after application, 0 = no damage, 100 = complete death
Procedure, shortened: as §1

[7] = tested on: large crabgrass (Digitaria sanguinalis, DIGSA); assay: as above; conditions: rated 14 days after application, 0 = no damage, 100 = complete death
Procedure, shortened: as §1

[8] = tested on: sicklepod (Cassia obtusifolia, CASOB); assay: as above; conditions: rated 14 days after application, 0 = no damage, 100 = complete death
Procedure, shortened: as §1

[9] = tested on: velvetleaf (Abutilon theophrasti, ABUTH); assay: as above; conditions: rated 14 days after application, 0 = no damage, 100 = complete death
Procedure, shortened: as §1

[10] = tested on: field corn (Zea mays L., var. Dekalb 535, CORN); assay: Pre-emerge test, crop safety; conditions: rated 14 days after application, 0 = no damage, 100 = complete death
Procedure, shortened: (§2)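 Applied at 15–1000 g ai/ha from acetone in 187 l/ha spray volume. Post-emergence applications included 0.25% v/v non-ionic surfactant and reached plants sown 8–21 days before. Pre-emergence applications were incorporated by surface watering. Efficacy or crop damage was rated on a 0–100 scale after 14 days.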

[11] = tested on: upland rice (Oryza sp., var. Tebonnet, RICE); assay: Pre-emerge test, crop safety; conditions: rated 14 days after application, 0 = no damage, 100 = complete death
Procedure, shortened: as §2

[12] = tested on: barnyardgrass (Echinochloa crus-galli, ECHCG); assay: Post-emerge test, greenhouse herbicide activity screening; conditions: post-emerge, 14 days after application, rating scale 0-100
Procedure, shortened: (§3)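 Compounds in acetone were track-sprayed at 15–1000 g ai/ha: pre-emergence onto soil sown the previous day, then top-watered to incorporate and later bottom-watered; post-emergence onto 2–3 leaf plants with 0.25% v/v surfactant, bottom-watered only. Ratings on a 0–100 phytotoxicity scale were taken at day 14.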

[13] = tested on: common ragweed (Ambrosia artemisizfolia L., AMBEL); assay: as above; conditions: post-emerge, 14 days after application, rating scale 0-100
Procedure, shortened: as §3

[14] = tested on: green foxtail (Setaria viridis, SETVI); assay: as above; conditions: post-emerge, 14 days after application, rating scale 0-100
Procedure, shortened: as §3

[15] = tested on: ivyleaf morningglory (Ipomoea hederacea, IPOHE); assay: as above; conditions: post-emerge, 14 days after application, rating scale 0-100
Procedure, shortened: as §3

[16] = tested on: johnsongrass (Sorghum halepense, SORHA); assay: as above; conditions: post-emerge, 14 days after application, rating scale 0-100
Procedure, shortened: as §3

[17] = tested on: lambsquarters (Chenopodium album, CHEAL); assay: as above; conditions: post-emerge, 14 days after application, rating scale 0-100
Procedure, shortened: as §3

[18] = tested on: large crabgrass (Digitaria sanguinalis, DIGSA); assay: as above; conditions: post-emerge, 14 days after application, rating scale 0-100
Procedure, shortened: as §3

[19] = tested on: redroot pigweed (Amaranthus retroflexus, AMARE); assay: as above; conditions: post-emerge, 14 days after application, rating scale 0-100
Procedure, shortened: as §3

[20] = tested on: sicklepod (Cassia obtusifolia, CASOB); assay: as above; conditions: post-emerge, 14 days after application, rating scale 0-100
Procedure, shortened: as §3

[21] = tested on: velvetleaf (Abutilon theophrasti, ABUTH); assay: as above; conditions: post-emerge, 14 days after application, rating scale 0-100
Procedure, shortened: as §3

[22] = tested on: field corn (Zea mays L., var. Dekalb 535, CORN); assay: Post-emerge test, crop safety; conditions: post-emerge, 14 days after application, rating scale 0-100
Procedure, shortened: as §1

[23] = tested on: upland rice (Oryza sp., var. Tebonnet, RICE); assay: Post-emerge test, crop safety; conditions: post-emerge, 14 days after application, rating scale 0-100
Procedure, shortened: as §1

Question: Which “Pre-emerge Herbicidal Activity, phytotoxicity rating (0-100), AMARE” value ([1]; 63 g ai/ha) does the source give for COc1c(Cl)cc(F)c(-n2c(=O)cc(C(F)(F)F)n(C)c2=O)c1NC(=O)c1ccc(C(F)(F)F)cc1 [2-33] here?
Answer: The value was 100.

Question: And the “Pre-emerge Herbicidal Activity, phytotoxicity rating (0-100), AMARE” value ([1]; 250 g ai/ha)?
Answer: Its value is 100.

Question: And the “Pre-emerge Herbicidal Activity, phytotoxicity rating (0-100), ECHCG” value ([2]; 63 g ai/ha)?
Answer: The value was 30.

Question: What about the “Pre-emerge Herbicidal Activity, phytotoxicity rating (0-100), ECHCG” value ([2]; 250 g ai/ha) of the same molecule?
Answer: The value was 95.

Question: And the “Pre-emerge Herbicidal Activity, phytotoxicity rating (0-100), SETVI” value ([3]; 63 g ai/ha)?
Answer: Its value is 100.

Question: And the “Pre-emerge Herbicidal Activity, phytotoxicity rating (0-100), SETVI” value ([3]; 250 g ai/ha)?
Answer: Its value is 100.

Question: What about the “Pre-emerge Herbicidal Activity, phytotoxicity rating (0-100), IPOHE” value ([4]; 63 g ai/ha) of the same molecule?
Answer: The value was 100.

Question: And the “Pre-emerge Herbicidal Activity, phytotoxicity rating (0-100), IPOHE” value ([4]; 250 g ai/ha)?
Answer: The value was 100.

Question: What about the “Pre-emerge Herbicidal Activity, phytotoxicity rating (0-100), SORHA” value ([5]; 63 g ai/ha) of the same molecule?
Answer: Its value is 60.

Question: What about the “Pre-emerge Herbicidal Activity, phytotoxicity rating (0-100), SORHA” value ([5]; 250 g ai/ha) of the same molecule?
Answer: Its value is 90.

Question: And the “Pre-emerge Herbicidal Activity, phytotoxicity rating (0-100), CHEAL” value ([6]; 63 g ai/ha)?
Answer: The value was 100.

Question: What about the “Pre-emerge Herbicidal Activity, phytotoxicity rating (0-100), CHEAL” value ([6]; 250 g ai/ha) of the same molecule?
Answer: Its value is 100.

Question: And the “Pre-emerge Herbicidal Activity, phytotoxicity rating (0-100), DIGSA” value ([7]; 63 g ai/ha)?
Answer: Its value is 100.

Question: And the “Pre-emerge Herbicidal Activity, phytotoxicity rating (0-100), DIGSA” value ([7]; 250 g ai/ha)?
Answer: Its value is 100.

Question: What about the “Pre-emerge Herbicidal Activity, phytotoxicity rating (0-100), CASOB” value ([8]; 63 g ai/ha) of the same molecule?
Answer: The value was 100.

Question: What about the “Pre-emerge Herbicidal Activity, phytotoxicity rating (0-100), CASOB” value ([8]; 250 g ai/ha) of the same molecule?
Answer: Its value is 100.

Question: What about the “Pre-emerge Herbicidal Activity, phytotoxicity rating (0-100), ABUTH” value ([9]; 63 g ai/ha) of the same molecule?
Answer: Its value is 100.

Question: What about the “Pre-emerge Herbicidal Activity, phytotoxicity rating (0-100), ABUTH” value ([9]; 250 g ai/ha) of the same molecule?
Answer: Its value is 100.

Question: What about the “Pre-emerge phytotoxicity rating (0-100), crop damage, CORN” value ([10]; 63 g ai/ha) of the same molecule?
Answer: Its value is 70.

Question: What about the “Pre-emerge phytotoxicity rating (0-100), crop damage, CORN” value ([10]; 250 g ai/ha) of the same molecule?
Answer: Its value is 90.

Question: And the “Pre-emerge phytotoxicity rating (0-100), crop damage, RICE” value ([11]; 63 g ai/ha)?
Answer: Its value is 70.

Question: And the “Pre-emerge phytotoxicity rating (0-100), crop damage, RICE” value ([11]; 250 g ai/ha)?
Answer: Its value is 80.

Question: What about the “phytotoxicity rating ECHCG” value ([12]; 63 g ai/ha) of the same molecule?
Answer: Its value is 10.

Question: What about the “phytotoxicity rating ECHCG” value ([12]; 250 g ai/ha) of the same molecule?
Answer: Its value is 60.

Question: And the “phytotoxicity rating AMBEL” value ([13]; 63 g ai/ha)?
Answer: Its value is 70.

Question: And the “phytotoxicity rating AMBEL” value ([13]; 250 g ai/ha)?
Answer: The value was 95.

Question: What about the “phytotoxicity rating SETVI” value ([14]; 63 g ai/ha) of the same molecule?
Answer: The value was 50.

Question: What about the “phytotoxicity rating SETVI” value ([14]; 250 g ai/ha) of the same molecule?
Answer: Its value is 40.

Question: What about the “phytotoxicity rating IPOHE” value ([15]; 63 g ai/ha) of the same molecule?
Answer: The value was 100.

Question: What about the “phytotoxicity rating IPOHE” value ([15]; 250 g ai/ha) of the same molecule?
Answer: The value was 100.

Question: What about the “phytotoxicity rating SORHA” value ([16]; 63 g ai/ha) of the same molecule?
Answer: Its value is 0.

Question: What about the “phytotoxicity rating SORHA” value ([16]; 250 g ai/ha) of the same molecule?
Answer: The value was 20.

Question: And the “phytotoxicity rating CHEAL” value ([17]; 63 g ai/ha)?
Answer: Its value is 80.

Question: What about the “phytotoxicity rating CHEAL” value ([17]; 250 g ai/ha) of the same molecule?
Answer: Its value is 95.

Question: And the “phytotoxicity rating DIGSA” value ([18]; 63 g ai/ha)?
Answer: The value was 0.

Question: What about the “phytotoxicity rating DIGSA” value ([18]; 250 g ai/ha) of the same molecule?
Answer: Its value is 40.

Question: And the “phytotoxicity rating AMARE” value ([19]; 63 g ai/ha)?
Answer: Its value is 90.

Question: What about the “phytotoxicity rating AMARE” value ([19]; 250 g ai/ha) of the same molecule?
Answer: Its value is 95.

Question: And the “phytotoxicity rating CASOB” value ([20]; 63 g ai/ha)?
Answer: The value was 70.

Question: What about the “phytotoxicity rating CASOB” value ([20]; 250 g ai/ha) of the same molecule?
Answer: Its value is 80.

Question: And the “phytotoxicity rating ABUTH” value ([21]; 63 g ai/ha)?
Answer: Its value is 100.

Question: What about the “phytotoxicity rating ABUTH” value ([21]; 250 g ai/ha) of the same molecule?
Answer: Its value is 100.

Question: What about the “phytotoxicity rating CORN” value ([22]; 63 g ai/ha) of the same molecule?
Answer: Its value is 10.

Question: And the “phytotoxicity rating CORN” value ([22]; 250 g ai/ha)?
Answer: Its value is 40.

Question: What about the “phytotoxicity rating RICE” value ([23]; 63 g ai/ha) of the same molecule?
Answer: The value was 20.

Question: And the “phytotoxicity rating RICE” value ([23]; 250 g ai/ha)?
Answer: The value was 60.
